Measurements taken from BindingDB's records for doi:10.1016/j.bmcl.2009.03.149 (Gsk, 2009).

Legend:
Test in all cases: Enzyme Inhibition Assay
Beta-secretase 2 = molecular target: T1, Beta-secretase 2 (Homo sapiens, UniProt Q9Y5Z0)
T1 sequence (Q9Y5Z0 whole entry): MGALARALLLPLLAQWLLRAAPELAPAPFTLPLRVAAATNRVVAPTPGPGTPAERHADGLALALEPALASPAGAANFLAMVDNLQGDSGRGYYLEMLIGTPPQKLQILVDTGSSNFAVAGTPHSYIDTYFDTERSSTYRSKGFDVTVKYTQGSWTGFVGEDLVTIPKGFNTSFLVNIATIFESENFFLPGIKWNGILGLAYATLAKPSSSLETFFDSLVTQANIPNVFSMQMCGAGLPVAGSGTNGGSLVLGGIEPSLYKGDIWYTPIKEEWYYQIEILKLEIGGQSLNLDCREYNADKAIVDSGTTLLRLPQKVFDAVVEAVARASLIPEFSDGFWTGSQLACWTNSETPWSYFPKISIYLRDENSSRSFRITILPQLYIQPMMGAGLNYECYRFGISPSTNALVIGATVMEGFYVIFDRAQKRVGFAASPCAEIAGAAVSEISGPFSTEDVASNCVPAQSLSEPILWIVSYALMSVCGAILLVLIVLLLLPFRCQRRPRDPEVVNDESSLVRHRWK

Cathepsin D = Cathepsin D (Homo sapiens, UniProt P07339)
Beta-secretase 1 = Beta-secretase 1 (Homo sapiens, UniProt P56817); settings: pH 4.5; 22 °C
Beta-secretase 1, sequence (P56817 whole entry): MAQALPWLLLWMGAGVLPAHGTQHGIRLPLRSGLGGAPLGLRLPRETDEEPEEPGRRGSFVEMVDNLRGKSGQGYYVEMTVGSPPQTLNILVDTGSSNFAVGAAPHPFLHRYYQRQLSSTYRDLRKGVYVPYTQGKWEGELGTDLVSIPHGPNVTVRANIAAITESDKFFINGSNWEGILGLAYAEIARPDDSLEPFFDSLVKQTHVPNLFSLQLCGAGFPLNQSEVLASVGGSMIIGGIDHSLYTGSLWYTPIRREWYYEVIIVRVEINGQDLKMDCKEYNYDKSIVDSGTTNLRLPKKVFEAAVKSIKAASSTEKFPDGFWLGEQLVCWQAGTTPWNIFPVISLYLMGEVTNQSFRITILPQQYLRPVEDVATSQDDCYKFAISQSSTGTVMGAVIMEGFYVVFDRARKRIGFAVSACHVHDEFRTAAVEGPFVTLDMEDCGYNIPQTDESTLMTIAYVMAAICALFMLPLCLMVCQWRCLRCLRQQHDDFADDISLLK

Cathepsin D, sequence (P07339 65-162 limits assumed): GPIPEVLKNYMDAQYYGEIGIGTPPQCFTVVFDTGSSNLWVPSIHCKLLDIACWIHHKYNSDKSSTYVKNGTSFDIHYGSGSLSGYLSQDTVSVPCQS
Cathepsin D, sequence (P07339 169-412 limits assumed): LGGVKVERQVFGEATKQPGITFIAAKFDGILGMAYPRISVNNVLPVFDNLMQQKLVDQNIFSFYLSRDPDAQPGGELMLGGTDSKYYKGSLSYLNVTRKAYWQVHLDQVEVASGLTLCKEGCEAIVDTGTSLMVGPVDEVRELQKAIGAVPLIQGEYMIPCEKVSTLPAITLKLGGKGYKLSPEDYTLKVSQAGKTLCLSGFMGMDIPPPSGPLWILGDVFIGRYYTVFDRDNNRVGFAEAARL

CCc1cn2c3c(cc(C(=O)N[C@@H](Cc4ccccc4)[C@H](O)CNC4CCOCC4)cc13)OS(=O)(=O)CC2 [sulfone tricyclic analogue, 19]
IC50 (Beta-secretase 2): 450 nM | IC50 (Cathepsin D; pH 4.5, 22 °C): 0.13 µM | IC50 (Beta-secretase 1): 86 nM

CCc1cn2c3c(cc(C(=O)N[C@@H](Cc4ccccc4)[C@H](O)CNC4CCOCC4)cc13)N(C)S(=O)(=O)CC2 [BMCL193674 Compound 6]
IC50 (Beta-secretase 2): 490 nM | IC50 (Cathepsin D): 6.61 µM | IC50 (Beta-secretase 1): 15 nM
